# Data from patent publication US11253486B2, “Bakuchiol compositions for treatment of post inflammatory hyperpigmentation” (Unigen, Inc., priority 2011, dated 2022).
# Experiments:
# [1] = tested on: acne lesions and Post Inflammatory Hyperpigmentation; conditions: OTC drugs, Studies 1-3, 10 or 12 week studies; cited from earlier work
# mushroom tyrosinase = mushroom tyrosinase (Agaricus bisporus, UniProt C7FF04); assay: Tyrosinase inhibition assay (L-DOPA to dopachrome); format: biochemical; conditions: eight different dosages; <100 ppm furanocoumarins; FIG. 4
# Sequence of mushroom tyrosinase (C7FF04 2-392): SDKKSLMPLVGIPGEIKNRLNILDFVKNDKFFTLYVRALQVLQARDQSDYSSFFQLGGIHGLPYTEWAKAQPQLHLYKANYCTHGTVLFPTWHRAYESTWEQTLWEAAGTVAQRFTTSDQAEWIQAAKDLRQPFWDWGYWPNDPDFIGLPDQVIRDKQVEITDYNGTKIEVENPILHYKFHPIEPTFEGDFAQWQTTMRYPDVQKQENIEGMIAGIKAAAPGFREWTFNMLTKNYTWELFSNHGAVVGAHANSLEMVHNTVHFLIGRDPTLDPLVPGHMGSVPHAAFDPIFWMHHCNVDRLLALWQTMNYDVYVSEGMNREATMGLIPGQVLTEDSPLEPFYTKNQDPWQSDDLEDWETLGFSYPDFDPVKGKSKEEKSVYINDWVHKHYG
# Protocol: A tyrosinase inhibition assay was carried out using the method reported by Jones et al. (2002) Pigment. […] Using this method, the conversion of L-Dopa, a substrate of tyrosinase, into dopachrome was followed by monitoring absorption at 450 nm. Tyrosinase was prepared in 50 mM potassium phosphate buffer, pH 6.8 (assay buffer) at 2000 U/ml and stored at −20° C. in 1 ml aliquots prior to use. For use in assays, stock enzyme solutions were thawed and diluted to 200 U/ml with assay buffer. A 2 mM working solution of substrate, L-DOPA, was prepared in assay buffer for each assay. Samples were dissolved in 10% DMSO (0.5 ml) and diluted to 5 ml with assay buffer. The reaction mixture comprised 0.050 ml 2 mM L-DOPA, 0.050 ml 200 U/ml mushroom tyrosinase and 0.050 ml inhibitor. Reaction volume was adjusted to 200 μl with assay buffer. Assays were performed in 96 well Falcon 3097 flat-bottom microtiter plates (Beckton Dickinson, N.J.). Appearance of dopachrome was measured with a WALLAC 1420 Multilable Counter (Turku, Finland). Average velocity was determined from linear enzyme rate as measured by change in absorbance (ΔA450) at 450 nm per minute. Percent inhibition of tyrosinase by test samples was determined by comparison of absorbance of samples versus control using formula (1): (Negative control absorption−sample absorption)/Negative control absorption×100 (1)
# [2] = Percutaneous absorption ex-vivo test; format: in vitro ADME, human; conditions: 0.5% formulation concentration, single application, over 48 hours
# Text: The partition coefficient of a chemical compound provides a thermodynamic measure of its hydrophilicity/lipophilicity balance and thus its potential bioavailability. […] The skin penetration of the active compound—bakuchiol in a skin care cream was quantified in an ex-vivo test on isolated human skin. […] In certain embodiments, the disclosed compositions comprise a skin penetration enhancer.
# Two natural bakuchiol compositions comprising 86.54% bakuchiol and 77.02% bakuchiol and a combined total of less than 100 ppm psoralen and angelicin (isopsoralen) were formulated in a cosmetic vehicle or complicated skin care cream and tested on in vitro models or in human clinical trials for their safety profile.
# [3] = tested on: subjects with PIH related to acne; assay: Double blind placebo and positive controlled study for PIH related to acne (Example 11); format: in vivo, human; conditions: for PIH grade, mean: cream twice a day to the face
# Protocol: The safety and efficacy of a 0.5% (wt/wt) cream of bakuchiol (UP256) was evaluated in a double blind placebo and positive controlled study for the treatment of PIH related to acne. The study evaluated a bakuchiol cream at 0.5% concentration, a 2% Salicylic acid cream and a placebo cream (Vehicle) in an Asian population. The participants were instructed to apply the study creams to the face twice a day (AM/PM). Study participants were given instructions for application and provided with sunscreen.
# The study population consisted of male and female subjects older than 18 and younger than 40 years and in generally good health as determined by a medical history. The bakuchiol study arm enrolled 18 subjects, the Salicylic acid (SAL) study arm enrolled 20 subjects, and the placebo study arm enrolled 19 subjects.
# The PIH grade is a measure of the severity of the hyperpigmentation (higher number=more severe pigmentation).
# Primary Study Objectives: • 1. PIH IGA Time Frame: Baseline and weeks 2, 4 and 8 • 2. PIH % Distribution Time Frame: Baseline and weeks 2, 4 and 8
# PIH efficacy was evaluated based on changes from baseline (p<0.05) and over other treatment groups (p<0.05) using t-test or/and ANOVA.
# Subject's Assessment questionnaires and Tolerability Assessments were collected at Baseline and weeks 2, 4, and 8. Urine pregnancy tests for females of childbearing potential were collected at Baseline and week 8.
# The following data was collected: • 1. Change from baseline in PIH Severity; • 2. Change from baseline in the PIH Grade; and • 3. Change from baseline in the Lesion counts
# The data was analyzed from Investigator evaluations at each visit and from photographs taken at the specified time points. The photographs from baseline, week 4, and week 8 were evaluated by a second group of investigators and two independent dermatologists before the study was unblended to further confirm that the population met criteria. The data analyzed is based on confirmed evaluations, there was no photo for week two therefore week two data is not included in the analysis.
# [4] = questionnaire and investigator safety evaluation, count
smiles,measurement,setting,value
"O=C(OOC(=O)c1ccccc1)c1ccccc1 [Benzoyl peroxide (5%), Benzoyl peroxide]",Improvement of Post Inflammatory Hyperpigmentation,[1],0
same,Mean percent reduction in inflammatory lesion counts,[1],32%
same,Mean percent reduction in non-inflammatory lesion counts,[1],22%
same,Mean percent reduction in total lesion counts,[1],28%
C=CC(C)(/C=C/c1ccc(O)cc1)CCC=C(C)C (centres unmarked) [bakuchiol],tyrosinase inhibition activity,mushroom tyrosinase,no tyrosinase inhibition function
same,skin penetration / percutaneous absorption,[2],good skin penetration and bioavailability
"O=C(O)c1ccccc1O [Salicylic Acid, Salicylic acid]","Inflammatory acne lesions, mean",[3]; Baseline,11.2
same,"PIH grade, mean",[3]; Baseline,3.15
same,"Inflammatory acne lesions, mean",[3]; Week 4,9.25
same,"PIH grade, mean",[3]; Week 4,3.2
same,"Inflammatory acne lesions, mean",[3]; Week 8,8.65
same,"PIH grade, mean",[3]; Week 8,3.2
same,Subject assessment: Itching/Burning,[3]; [4],4
same,Subject assessment: Skin Discomfort,[3]; [4],2
